Assay results as given in PubChem BioAssay AID1963856 (Molecular Pharmacology Branch, DTP, NCI, 2024).

System: LG0567-F671-PDC KRAS tumor spheroid viability
Experiment: Anticancer human tumor LG0567-F671-PDC patient-derived lung adenocarcinoma cell line growth inhibition [KRAS2]
Details: spheroids with HUVEC and MSC; for IC50: curve of first compound; for viability, T/C: stronger effect = lower value
In short: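 KRAS-mutant tumor cells were grown as spheroids with HUVEC endothelial cells and human MSCs as stroma. Targeted agents were tested alone and with KRAS pathway inhibitors. Doses started at or near clinical Cmax, or 10 microM, descending half-log.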

[1] = second compound 0.1 µM, first compound 0.0316 µM
[2] = second compound 0.1 µM, first compound 0.1 µM
[3] = second compound 0.1 µM, first compound 0.316 µM
[4] = second compound 0.1 µM, first compound 1 µM
[5] = second compound 0.1 µM, first compound 3.16 µM
[6] = second compound 0.1 µM, first compound 10 µM
[7] = second compound 0.316 µM, first compound 0.0316 µM
[8] = second compound 0.316 µM, first compound 0.1 µM
[9] = second compound 0.316 µM, first compound 0.316 µM
[10] = second compound 0.316 µM, first compound 1 µM
[11] = second compound 0.316 µM, first compound 3.16 µM
[12] = second compound 0.316 µM, first compound 10 µM
[13] = second compound 1 µM, first compound 0.0316 µM
[14] = second compound 1 µM, first compound 0.1 µM
[15] = second compound 1 µM, first compound 0.316 µM
[16] = second compound 1 µM, first compound 1 µM
[17] = second compound 1 µM, first compound 3.16 µM
[18] = second compound 1 µM, first compound 10 µM
[19] = second compound 3.16 µM, first compound 0.0316 µM
[20] = second compound 3.16 µM, first compound 0.1 µM
[21] = second compound 3.16 µM, first compound 0.316 µM
[22] = second compound 3.16 µM, first compound 1 µM
[23] = second compound 3.16 µM, first compound 3.16 µM
[24] = second compound 3.16 µM, first compound 10 µM
[25] = second compound 0.1 µM, first compound 0.000316 µM
[26] = second compound 0.1 µM, first compound 0.001 µM
[27] = second compound 0.1 µM, first compound 0.00316 µM
[28] = second compound 0.1 µM, first compound 0.01 µM
[29] = second compound 0.316 µM, first compound 0.000316 µM
[30] = second compound 0.316 µM, first compound 0.001 µM
[31] = second compound 0.316 µM, first compound 0.00316 µM
[32] = second compound 0.316 µM, first compound 0.01 µM
[33] = second compound 1 µM, first compound 0.000316 µM
[34] = second compound 1 µM, first compound 0.001 µM
[35] = second compound 1 µM, first compound 0.00316 µM
[36] = second compound 1 µM, first compound 0.01 µM
[37] = second compound 3.16 µM, first compound 0.000316 µM
[38] = second compound 3.16 µM, first compound 0.001 µM
[39] = second compound 3.16 µM, first compound 0.00316 µM
[40] = second compound 3.16 µM, first compound 0.01 µM
[41] = second compound 10 µM, first compound 0.000316 µM
[42] = second compound 10 µM, first compound 0.001 µM
[43] = second compound 10 µM, first compound 0.00316 µM
[44] = second compound 10 µM, first compound 0.01 µM
[45] = second compound 10 µM, first compound 0.0316 µM
[46] = second compound 10 µM, first compound 0.1 µM
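Also: drug exposure lasted seven days after spheroids formed for three days.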
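For viability, T/C in this document: 100% = DMSO vehicle control viability.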

Work on `CCNC(=O)CC1N=C(c2ccc(Cl)cc2)c2cc(OC)ccc2-n2c(C)nnc21` (configuration not stated) + C=CC(=O)N1CCN(c2nc(OCC3CCCN3C)nc3c2CCN(c2cccc4cccc(C)c24)C3)CC1CC#N yielded an IC50 (second compound 0.0316 µM) of 51.2 nM, an IC50 (second compound 0.1 µM) of less than 31.6 nM and an IC50 (second compound 0.316 µM) of 2000 nM. The IC50 (second compound 1 µM) was less than 31.6 nM, the IC50 (second compound 3.16 µM) was less than 31.6 nM and the viability, T/C (second compound 0.0316 µM, first compound 0.0316 µM) was 48.4%. The viability, T/C (second compound 0.0316 µM, first compound 0.1 µM) was 52.5%, the viability, T/C (second compound 0.0316 µM, first compound 0.316 µM) was 36.7% and the viability, T/C (second compound 0.0316 µM, first compound 1 µM) was 25.7%. It also gave a viability, T/C (second compound 0.0316 µM, first compound 3.16 µM) of 17.2%, a viability, T/C (second compound 0.0316 µM, first compound 10 µM) of 16.6% and a viability, T/C [1] of 46.5%. For the same compound, the viability, T/C [2] was 41.5%, the viability, T/C [3] was 25.6% and the viability, T/C [4] was 19.4%. The viability, T/C [5] was 15.3%, the viability, T/C [6] was 12.9% and the viability, T/C [7] was 99.2%. It also gave a viability, T/C [8] of 109%, a viability, T/C [9] of 72.8% and a viability, T/C [10] of 60.9%. For the same compound, the viability, T/C [11] was 46.8%, the viability, T/C [12] was 40.2% and the viability, T/C [13] was 35.7%. It also gave a viability, T/C [14] of 32.3%, a viability, T/C [15] of 24.6% and a viability, T/C [16] of 17.5%. The viability, T/C [17] was 14.6%, the viability, T/C [18] was 12.8% and the viability, T/C [19] was 41.3%. The viability, T/C [20] was 32.7%, the viability, T/C [21] was 22.6% and the viability, T/C [22] was 13.3%. The viability, T/C [23] was 9.07% and the viability, T/C [24] was 7.07%.

In the case of `CCNC(=O)CC1N=C(c2ccc(Cl)cc2)c2cc(OC)ccc2-n2c(C)nnc21` (configuration not stated), the viability, T/C (compound 0.0316 µM) is reported as 115% [middle of 5 runs], the viability, T/C (compound 0.1 µM) is reported as 103% [middle of 5 runs] and the viability, T/C (compound 0.316 µM) is reported as 80.5% [middle of 5 runs].

`COc1cc(Nc2ncc3c(n2)-c2ccc(Cl)cc2C(c2c(F)cccc2OC)=NC3)ccc1C(=O)O` was tested, and the viability, T/C (compound 0.0316 µM) was 92.8% [middle of 5 runs], the viability, T/C (compound 0.316 µM) was 74% [middle of 5 runs] and the viability, T/C (compound 3.16 µM) was 67.6% [middle of 5 runs]. The viability, T/C (compound 10 µM) was 48.9% [middle of 5 runs].

`Cn1ncnc1[C@H]1c2n[nH]c(=O)c3cc(F)cc(c23)N[C@@H]1c1ccc(F)cc1` + COc1cc2nc(C)nc(NC(C)c3cc(N)cc(C(F)(F)F)c3)c2cc1OC1CCOC1 showed an IC50 (second compound 0.1 µM) greater than 100 nM, an IC50 (second compound 0.316 µM) greater than 100 nM and an IC50 (second compound 1 µM) greater than 100 nM. For the same compound, the IC50 (second compound 3.16 µM) was greater than 100 nM, the IC50 (second compound 10 µM) was greater than 100 nM and the viability, T/C [25] was 94.8%. It also gave a viability, T/C [26] of 78.3%, a viability, T/C [27] of 74.8% and a viability, T/C [28] of 83.8%. For the same compound, the viability, T/C [1] was 84.7%, the viability, T/C [2] was 82.8% and the viability, T/C [29] was 77.6%. It also gave a viability, T/C [30] of 74.9%, a viability, T/C [31] of 61.1% and a viability, T/C [32] of 66.3%. For the same compound, the viability, T/C [7] was 81.4%, the viability, T/C [8] was 75.9% and the viability, T/C [33] was 75.6%. For the same compound, the viability, T/C [34] was 63.6%, the viability, T/C [35] was 58.6% and the viability, T/C [36] was 49.1%. It also gave a viability, T/C [13] of 53.7%, a viability, T/C [14] of 53.8% and a viability, T/C [37] of 69.1%. For the same compound, the viability, T/C [38] was 70%, the viability, T/C [39] was 67.3% and the viability, T/C [40] was 56.9%. The viability, T/C [19] was 53.6%, the viability, T/C [20] was 51.9% and the viability, T/C [41] was 61.3%. It also gave a viability, T/C [42] of 62.9%, a viability, T/C [43] of 71.2% and a viability, T/C [44] of 54.4%. It also gave a viability, T/C [45] of 51.7% and a viability, T/C [46] of 53.6%.

`O=C(c1cc(Cc2n[nH]c(=O)c3ccccc23)ccc1F)N1CCN(C(=O)C2CC2)CC1` + CNCc1ccccc1-c1csc(C(C)Nc2nc(C)nc3cc(OC)c(OC)cc23)c1 was tested, and the IC50 (second compound 0.1 µM) was greater than 10000 nM, the IC50 (second compound 0.316 µM) was greater than 10000 nM and the IC50 (second compound 1 µM) was greater than 10000 nM. It also gave an IC50 (second compound 3.16 µM) of 3590 nM, an IC50 (second compound 10 µM) of less than 31.6 nM and a viability, T/C [1] of 88.1%. For the same compound, the viability, T/C [2] was 95.4%, the viability, T/C [3] was 80.6% and the viability, T/C [4] was 79.5%. For the same compound, the viability, T/C [5] was 74.1%, the viability, T/C [6] was 81.6% and the viability, T/C [7] was 69.6%. It also gave a viability, T/C [8] of 58.8%, a viability, T/C [9] of 63.9% and a viability, T/C [10] of 52.8%. The viability, T/C [11] was 61.5%, the viability, T/C [12] was 60.5% and the viability, T/C [13] was 78.1%. For the same compound, the viability, T/C [14] was 72.2%, the viability, T/C [15] was 68.3% and the viability, T/C [16] was 71.5%. It also gave a viability, T/C [17] of 67%, a viability, T/C [18] of 64.4% and a viability, T/C [19] of 46.5%. For the same compound, the viability, T/C [20] was 80%, the viability, T/C [21] was 84.2% and the viability, T/C [22] was 0.72%. The viability, T/C [23] was 69.7%, the viability, T/C [24] was 0.31% and the viability, T/C [45] was 0.22%. For the same compound, the viability, T/C [46] was 0.82%, the viability, T/C (second compound 10 µM, first compound 0.316 µM) was 0.19% and the viability, T/C (second compound 10 µM, first compound 1 µM) was 0.61%. For the same compound, the viability, T/C (second compound 10 µM, first compound 3.16 µM) was 0.17% and the viability, T/C (second compound 10 µM, first compound 10 µM) was 0.2%.

`CC(C)n1nc(-c2ccc3oc(N)nc3c2)c2c(N)ncnc21` + C=CC(=O)N1CCN(c2nc(=O)n(-c3c(C)ccnc3C(C)C)c3nc(-c4c(O)cccc4F)c(F)cc23)C(C)C1 showed an IC50 (second compound 0.1 µM) of less than 0.316 nM, an IC50 (second compound 0.316 µM) of less than 0.316 nM and an IC50 (second compound 1 µM) of less than 0.316 nM. It also gave an IC50 (second compound 3.16 µM) of less than 0.316 nM, an IC50 (second compound 10 µM) of less than 0.316 nM and a viability, T/C [25] of 21.4%. It also gave a viability, T/C [26] of 17.1%, a viability, T/C [27] of 14.8% and a viability, T/C [28] of 11.4%. It also gave a viability, T/C [1] of 9.02%, a viability, T/C [2] of 8.13% and a viability, T/C [29] of 20.6%. For the same compound, the viability, T/C [30] was 20%, the viability, T/C [31] was 17.2% and the viability, T/C [32] was 11%. The viability, T/C [7] was 8.62%, the viability, T/C [8] was 7.08% and the viability, T/C [33] was 23.9%. It also gave a viability, T/C [34] of 14.5%, a viability, T/C [35] of 14% and a viability, T/C [36] of 10.8%. It also gave a viability, T/C [13] of 8.47%, a viability, T/C [14] of 6.2% and a viability, T/C [37] of 20.2%. It also gave a viability, T/C [38] of 15.8%, a viability, T/C [39] of 12.9% and a viability, T/C [40] of 10.2%. It also gave a viability, T/C [19] of 7.41%, a viability, T/C [20] of 8.01% and a viability, T/C [41] of 20.3%. The viability, T/C [42] was 16.8%, the viability, T/C [43] was 13.4% and the viability, T/C [44] was 13.1%. It also gave a viability, T/C [45] of 10.9% and a viability, T/C [46] of 10.3%.
